Test results taken from publication PMC7076710, “Synthesis, Identification, and Structure–Activity Relationship Analysis of GATA4 and NKX2-5 Protein–Protein Interaction Modulators” (Journal of Medicinal Chemistry, 2019).

Test system: COS-1 cells
Experiment: LDH assay (necrosis)
Type: cell-based

| Compound | LDH.1µM | LDH.3µM | LDH.10µM | LDH.30µM | LDH.1µM (COS-1 cells) | LDH.3µM (COS-1 cells) | LDH.10µM (COS-1 cells) | LDH.30µM (COS-1 cells) |
| --- | --- | --- | --- | --- | --- | --- | --- | --- |
| CCN(CC)c1ccc(NC(=O)c2cnsc2)cc1 [Compound 47s] | 3.18 | 0.65 | 1.08 | 0.91 | – | – | – | – |
| COc1ccc(-c2cc(NC(=O)c3ccc(C(C)(C)C)cc3)n[nH]2)cc1 [Compound 72] | 2.2 | 0.82 | 0.22 | -0.27 | – | – | – | – |
| Cc1onc(-c2ccccc2)c1COc1ccc(C(=O)OCCC#N)cc1 [Compound 35a, 2-Cyanoethyl 4-[(5-Methyl-3-phenylisoxazol-4-yl)methoxy]benzoate] | 0.51 | 1.44 | 1.72 | 1 | – | – | – | – |
| Cc1onc(-c2ccccc2)c1C(=O)N(C1=NC(C)CS1)c1ccc(Cl)cc1 (stereo not shown) [Compound 2] | – | – | – | – | 1.6 | 1.4 | 1.08 | 1.02 |
| CCC(=O)N(Cc1ccc(N(CC)CC)cc1)c1c(-c2ccccc2)noc1C [Compound 58] | 0.36 | -0.8 | -1.03 | 1.47 | – | – | – | – |
| N-[4-(Diethylamino)phenyl]-3-methyl-5-(4-methyl-1,2,3-thiadiazol-5-yl)isoxazole-4-carboxamide [Compound 47c] | -0.01 | -0.17 | 0.1 | -0.11 | – | – | – | – |
| CCN(CC)c1ccc(NC(=O)c2c(-c3ccccc3)noc2C)cc1 [Compound 1, N-[4-(Diethylamino)phenyl]-5-methyl-3-phenylisoxazole-4-carboxamide] | – | – | – | – | 1.16 | 0.89 | -0.76 | -0.02 |
